Data as given in ChEMBL document CHEMBL5442168, “ASAP - In vitro liver microsomal stability” (2024).
Several values for one entry are separate records, joined by “and”; a condition that tells them apart may be missing. Equal values may be shown once.

Experiments:
[1] = (§1) Mouse liver microsomal stability of compound in microsomal protein, PBS buffer pH 7.4, NADPH, glucose-6-phosphate and glucose-6-phosphate dehydrogenase media. Aliquotes were taken at 5 time points and after stopping the reaction, supernatants were analyzed using HPLC coupled with a tandem mass spectrometer. The elimination constant, half-life, and intrinsic clearance are determined as results using linear regression analysis. The assay has been performed by Enamine biological services, Bienta Ltd.The protocol is publicly available: dx.doi.org/10.17504/protocols.io.5qpvokdb9l4o/v1; assay type: ADME, microsomes, Microsome; details: for half-life / microsomal CLint: liver microsomes; for CLint / Remaining / Remaining (without cofactor) / T1/2: microsomes
[2] = as §1, with “Human” for “Mouse”; assay type: ADME, microsomes, Microsome; details: for half-life / microsomal CLint: liver microsomes; for CLint / Remaining / Remaining (without cofactor) / T1/2: microsomes
For Remaining (without cofactor) in this document: time not given here.
For Remaining in this document: time not given here.

Structure (SMILES)	half-life [1]	microsomal CLint [1]	CLint [1]	Remaining [1]	Remaining (without cofactor) [1]	T1/2 [1]	half-life [2]	microsomal CLint [2]	CLint [2]	Remaining [2]	Remaining (without cofactor) [2]	T1/2 [2]
CC(C)[C@@H](Nc1ncnc2[nH]c(-c3cnn(C)c3C#N)cc12)c1ccc2c(c1)OCCO2	7.7 min	218 µL/min/mg	129 µL/min/mg	3% and 13%	97% and 106%	13 min	22.6 min	74 µL/min/mg	47 µL/min/mg	25% and 46%	111% and 101%	35.4 min
Cc1nn(C)cc1-c1cc2c(N[C@H](c3ccc4c(c3)S(=O)(=O)CCC4)C(C)C)ncnc2[nH]1	8.3 min	202 µL/min/mg		4%	104%		6.1 min	273 µL/min/mg		1%	113%	
CC(C)[C@@H](Nc1ncnc2[nH]c(-c3cnn(C)c3C#N)cc12)c1ccc2c(c1)NC(=O)CO2	9.4 min	177 µL/min/mg	147 µL/min/mg	6% and 10%	97% and 102%	11.3 min	16.6 min	100 µL/min/mg	52 µL/min/mg	18% and 44%	93% and 109%	32.3 min
CC(C)[C@@H](Nc1ncnc2[nH]c(-c3ccc4cncn4c3)cc12)c1ccc2c(c1)S(=O)(=O)CCC2	9.8 min	170 µL/min/mg		6%	87%		8 min	210 µL/min/mg		4%	97%	
CC(C)(C)[C@@H](Nc1ncnc2[nH]c(-c3cnn(CC(N)=O)c3)cc12)c1ccc2c(c1)OCCO2	35.2 min	47 µL/min/mg	39 µL/min/mg	46% and 54%	107% and 106%	43.1 min	12.6 min	133 µL/min/mg	100 µL/min/mg	11% and 18%	87% and 109%	16.8 min
CC(C)[C@H](CO)Nc1ncnc2[nH]ccc12	171 min	10 µL/min/mg		90%	93%		289 min	6 µL/min/mg		119%	99%	
CC(C)(C)[C@H](Nc1ncnc2[nH]c(-c3cnn(CC(N)=O)c3)cc12)c1ccc2c(c1)OCCO2	38.3 min	44 µL/min/mg		48%	105%		10.9 min	153 µL/min/mg		9%	100%	
CC(C)[C@@H](Nc1ncnc2[nH]ccc12)c1ccc2c(c1)S(=O)(=O)CCC2			138 µL/min/mg and 55 µL/min/mg		103% and 117%	12.1 min and 30.4 min	44.7 min	37 µL/min/mg	21 µL/min/mg	53% and 69%	99%	78.6 min
CC(C)[C@@H](Nc1ncnc2[nH]c(-c3cnn(CC(N)=O)c3)cc12)c1ccc2c(c1)S(=O)(=O)CCC2	27.4 min	61 µL/min/mg	96 µL/min/mg	37% and 20%	109% and 111%	17.4 min	14.4 min	116 µL/min/mg	115 µL/min/mg	15%	95% and 103%	14.5 min
CC(C)[C@H](Nc1ncnc2[nH]c(C(=O)N[C@@H]3CCN(C)C3)cc12)c1ccc2c(c1)S(=O)(=O)CCC2	649 min	3 µL/min/mg		104%	107%		627 min	3 µL/min/mg		98%	100%	
CC(C)[C@H](Nc1ncnc2[nH]c(-c3cnn(CC(N)=O)c3)cc12)c1ccc2c(c1)S(=O)(=O)CCC2	42.6 min	39 µL/min/mg		53%	98%		7 min	240 µL/min/mg		2%	115%	
CNC(=O)Cn1cc(-c2cc3c(N[C@@H](c4ccc5c(c4)OCCO5)C(C)C)ncnc3[nH]2)cn1	35.7 min	47 µL/min/mg		46%	90%		14 min	119 µL/min/mg		14%	92%	
CC(C)[C@@H](Nc1ncnc2[nH]c(-c3cnn(CCC(N)=O)c3)cc12)c1ccc2c(c1)OCCO2	27.1 min	62 µL/min/mg		36%	106%		16.9 min	99 µL/min/mg		19%	108%	
CC(C)[C@@H](Nc1ncnc2[nH]c(-c3cnn(C)c3C#N)cc12)c1ccc2c(c1)S(=O)(=O)CCC2	3.8 min	440 µL/min/mg	709 µL/min/mg	0%	96% and 106%	2.4 min	3.4 min	490 µL/min/mg	516 µL/min/mg	1% and 0%	94% and 101%	3.2 min

Results, then the molecule that gave them:

half-life [1]	microsomal CLint [1]	CLint [1]	Remaining [1]	Remaining (without cofactor) [1]	T1/2 [1]	half-life [2]	microsomal CLint [2]	CLint [2]	Remaining [2]	Remaining (without cofactor) [2]	T1/2 [2]	Structure (SMILES)
2.2 min	770 µL/min/mg		0%	99%		6.5 min	258 µL/min/mg		1%	94%		CNC(=O)c1c[nH]c2ncnc(N[C@H](c3ccc4c(c3)S(=O)(=O)CCC4)C(C)C)c12
434 min	4 µL/min/mg		92%	92%		64 min	26 µL/min/mg		66%	107%		CC(C)[C@@H](Nc1ncnc2[nH]c(C(=O)N[C@H]3CCN(C)C3)cc12)c1ccc2c(c1)S(=O)(=O)CCC2
151 min	11 µL/min/mg		80%	92%		83.8 min	20 µL/min/mg		70%	106%		CC(C)[C@@H](Nc1ncnc2[nH]c(C(=O)N[C@@H]3CCN(C)C3)cc12)c1ccc2c(c1)S(=O)(=O)CCC2
10.8 min	155 µL/min/mg	140 µL/min/mg	7% and 10%	102%	11.9 min			141 µL/min/mg and 405 µL/min/mg	10% and 0%	102% and 105%	11.9 min and 4.1 min	CC(C)[C@@H](Nc1ncnc2[nH]c(-c3cnn(C)c3)cc12)c1ccc2c(c1)S(=O)(=O)CCC2
7.6 min	219 µL/min/mg		3%	93%		2.2 min	752 µL/min/mg		0%	93%		CC(C)[C@@H](Nc1ncnc2[nH]c(-c3ccc4nnn(C)c4c3)cc12)c1ccc2c(c1)S(=O)(=O)CCC2
34.6 min	48 µL/min/mg		47%	94%		24.8 min	67 µL/min/mg		32%	100%		CCNC(=O)c1cc2c(N[C@H](c3ccc4c(c3)OCCO4)C(C)C)ncnc2[nH]1
24.2 min	69 µL/min/mg		33%	111%		91.3 min	18 µL/min/mg		74%	92%		CC(C)[C@@H](Nc1ncnc2[nH]ccc12)c1ccc2c(c1)S(=O)(=O)CCO2
8.5 min	197 µL/min/mg		4%	106%		2.2 min	746 µL/min/mg		0%	99%		CNC(=O)c1cccc(-c2cc3c(N[C@H](c4ccc5c(c4)S(=O)(=O)CCC5)C(C)C)ncnc3[nH]2)c1
19.5 min	85 µL/min/mg	54 µL/min/mg	21% and 43%	95% and 114%	30.8 min				15% and 0%	98% and 102%		CCNC(=O)c1cc2c(N[C@@H](c3ccc4c(c3)S(=O)(=O)CCC4)C(C)C)ncnc2[nH]1
53.1 min	31 µL/min/mg	30 µL/min/mg	60% and 59%	90% and 109%	56.2 min	46 min	36 µL/min/mg	42 µL/min/mg	55% and 49%	96% and 107%	39.8 min	CC(C)(C)[C@@H](Nc1ncnc2[nH]c(-c3cnn(CC(N)=O)c3)cc12)c1ccc2c(n1)OCCO2
359 min	5 µL/min/mg		99%	110%		134 min	12 µL/min/mg		85%	90%		CC(C)[C@H](Nc1ncnc2[nH]c(-c3cnn(CC(N)=O)c3)cc12)c1ccc2c(n1)OCCO2
